Data on 2 compounds can be found in patent publication US10213444B2, “Composition and method for treating bipolar disorder” (LAUREATE INSTITUTE FOR BRAIN RESEARCH, priority 2014, dated 2019).

Data set [1] relates to individuals receiving lithium treatment (bipolar symptoms). The note with it: cited from earlier work.
The test system of data set [2] is patients with major depressive disorder. Put plainly: Same trial, subset of patients with major depressive disorder (unipolar depression). It counts as in vivo, human. Particulars: subset with major depressive disorder (n=10). As for the experimental part:
(§1) The above pharmaceutical compound comprising minocycline and acetylsalicylic acid was tested using a double-blind, placebo-controlled trial with a 2×2design. The study examined subjects with bipolar disorder during a current major depressive episode (“bipolar depression”). Most subjects were either partial responders to existing antidepressant and/or mood stabilizing treatments or were treatment resistant. The subjects were randomized to receive either (1) placebo-minocycline plus placebo-acetylsalicylic acid, or (2) active-minocycline (100 mg b.i.d.) plus placebo-acetylsalicylic acid, or (3) placebo-minocycline plus active-acetylsalicylic acid (81 mg b.i.d.), or (4) active-minocycline (100 mg b.i.d.) plus active-acetylsalicylic acid (81 mg b.i.d.) (FIG. 1). Clinical symptoms of depression and mania were measured using the Montgomery-Asberg Depression Rating Scale (MADRS) and the Young Mania Rating Scale (YMRS), respectively.
In the subset of patients with major depressive disorder (n=10), 75% responded to the combination of minocycline+ASA (3/4) compared to 50% response in the minocycline+placebo group (1/2), and 0% in the ASA+placebo group (0/3). The data document that the combination of minocycline and ASA has effectiveness for the treatment of additional forms of non-bipolar depression such as major depressive disorder and dysthymia. […]

For data set [3] the following is noted: administered orally; cited from earlier work.
Data set [4] relates to subjects with bipolar disorder during a current major depressive episode (bipolar depression). Put plainly: Double-blind, placebo-controlled 2×2 trial in bipolar depression (MADRS, YMRS). In kind it is in vivo, human. Particulars: LOCF; for Percentage of female responders: female patients; for Percentage of female responders / Percentage of responders (BMI >30): >50% reduction in MADRS; for Percentage of responders (BMI >30): subset BMI >30; for Percentage of responders: total sample, response = greater than 50% reduction in MADRS baseline to final, 6 weeks, ASA 81 mg b.i.d., minocycline 100 mg b.i.d. p.o. As for the experimental part:
as §1
For the data produced below, the treatment method for administering the combination of each composition, including the active-minocycline and active-acetylsalicylic acid, entailed the following steps: administer ASA 81 mg p.o b.i.d and minocycline 100 mg p.o b.i.d. As depicted in FIG. 1, each session number (total of 7) is encircled, with the timing between sessions indicated in weeks with a 2business day window on either side of visit target date to complete the visit. Session 1(far left) is the baseline and session 7(far right) is the study end. The study duration is 6weeks.
Of the 99patients who were randomized, 87started treatment and completed a sufficient number of sessions (at least 3weeks of treatment) to be included in the last-observation carried forward analysis (LOCF) shown below. For these 87subjects, 79completed the entire study. Eight subjects dropped-out early, all from the active treatment groups—4from minocycline+ASA, 3from ASA+placebo, and one from minocycline+placebo. Since existing anti-depressant medications generally begin to exert antidepressant effects within 3weeks, in this trial, data from patients with at least 3weeks of treatment were including in the LOCF analysis.
Response to medication/placebo was defined as a greater than 50% reduction in MADRS scores between the baseline and final assessment. Table 2provides results reflecting percentage of treatment responders by group, and relative risk reduction (RRR), absolute risk reduction (ARR) and, number needed to treat (NNT) for the combination ASA/minocycline treatment.

The conditions of data set [5]: administered orally; cited from earlier work. This is another data set of the same source.

On to `CC(=O)Oc1ccccc1C(=O)O` [ASA, acetylsalicylic acid], for which the “effect on medication events” value in data set [1] (high-dose aspirin or other anti-inflammatory classes added to lithium treatment) is reported as “increase in medication events”. Moreover, the “less likely to have a medication event” value in data set [1] (low-dose (≤81 to 162 mg/day) aspirin added to lithium treatment) is 17%. Further, in data set [2], the “percent responded (MADRS response)” value came out at 0%. For the same compound, in data set [3], the “brain to blood ratio” value is given as 0.32 and the “level within brain as percent of level within blood plasma” value is recorded as 32%. Further, in data set [4], the “Percentage of female responders” value was found to be 50%, the “Percentage of responders (BMI >30)” value was found to be 44% and the Percentage of responders is 56%.
Turning to `CN(C)c1ccc(O)c2c1C[C@H]1C[C@H]3[C@H](N(C)C)C(O)=C(C(N)=O)C(=O)[C@@]3(O)C(O)=C1C2=O` [minocycline], the “level within cerebrospinal fluid as percent of plasma concentrations” value in data set [5] is recorded as 11-56%. For the same compound, the “percent responded (MADRS response)” value in data set [2] turned out to be 50%. For the same compound, in data set [4], the “Percentage of female responders” value is 55%, the “Percentage of responders (BMI >30)” value is reported as 38% and the Percentage of responders is on record as 38%.
